Data: ChEMBL document CHEMBL1138538, “Design, synthesis, and evaluation of 10-N-substituted acridones as novel chemosensitizers in Plasmodium falciparum” (Antimicrob Agents Chemother, 2007)

Experiments:
Plasmodium falciparum [1] = experiment: microbe, parasite or virus in culture; details: D6, 72 h
Plasmodium falciparum [2] = experiment: microbe, parasite or virus in culture; details: Dd2, 72 h
[3] = target: Sodium-dependent serotonin transporter (Homo sapiens, UniProt P31645); type: cell-based, HEK293
Chain of Sodium-dependent serotonin transporter (P31645 whole entry): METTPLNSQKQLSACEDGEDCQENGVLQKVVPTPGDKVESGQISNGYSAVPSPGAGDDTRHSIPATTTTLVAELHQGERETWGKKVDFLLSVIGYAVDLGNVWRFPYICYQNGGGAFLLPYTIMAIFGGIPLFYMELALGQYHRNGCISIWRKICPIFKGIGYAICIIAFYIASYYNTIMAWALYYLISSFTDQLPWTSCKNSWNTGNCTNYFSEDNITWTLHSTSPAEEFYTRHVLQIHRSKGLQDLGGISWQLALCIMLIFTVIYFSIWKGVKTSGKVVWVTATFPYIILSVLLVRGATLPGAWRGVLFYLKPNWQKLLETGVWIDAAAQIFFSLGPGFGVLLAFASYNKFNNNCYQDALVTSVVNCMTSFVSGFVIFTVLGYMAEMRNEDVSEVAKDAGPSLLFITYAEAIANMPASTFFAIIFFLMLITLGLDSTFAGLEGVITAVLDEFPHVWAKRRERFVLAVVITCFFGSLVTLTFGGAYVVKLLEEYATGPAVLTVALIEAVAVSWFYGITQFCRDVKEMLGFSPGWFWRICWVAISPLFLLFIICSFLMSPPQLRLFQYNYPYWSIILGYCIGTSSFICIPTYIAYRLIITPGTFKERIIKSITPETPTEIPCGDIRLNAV
Description: Inhibition of [3H]5HT uptake at human SERT expressed in HEK293 cells

[4] = target: Sodium-dependent noradrenaline transporter (Homo sapiens, UniProt P23975)
Chain of Sodium-dependent noradrenaline transporter (P23975 whole entry): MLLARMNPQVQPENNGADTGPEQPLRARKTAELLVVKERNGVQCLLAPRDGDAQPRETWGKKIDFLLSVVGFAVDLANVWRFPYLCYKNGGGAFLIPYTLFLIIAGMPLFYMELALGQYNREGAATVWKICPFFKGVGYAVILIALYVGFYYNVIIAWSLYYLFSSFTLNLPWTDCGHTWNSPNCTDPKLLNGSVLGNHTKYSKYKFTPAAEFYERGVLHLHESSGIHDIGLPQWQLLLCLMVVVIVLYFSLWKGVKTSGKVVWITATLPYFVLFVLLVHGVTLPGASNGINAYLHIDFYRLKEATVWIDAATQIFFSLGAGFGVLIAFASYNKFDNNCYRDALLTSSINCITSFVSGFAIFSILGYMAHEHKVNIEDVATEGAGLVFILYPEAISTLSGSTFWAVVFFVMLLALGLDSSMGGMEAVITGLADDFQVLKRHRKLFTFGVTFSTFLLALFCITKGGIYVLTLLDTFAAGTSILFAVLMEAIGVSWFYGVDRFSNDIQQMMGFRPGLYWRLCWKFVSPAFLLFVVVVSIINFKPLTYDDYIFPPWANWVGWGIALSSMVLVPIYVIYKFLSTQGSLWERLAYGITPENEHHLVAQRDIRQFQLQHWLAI
Description: Inhibition of [3H]norepinephrine uptake at human NET expressed in HEK293 cells

[5] = target: Sodium-dependent dopamine transporter (Homo sapiens, UniProt Q01959)
Chain of Sodium-dependent dopamine transporter (Q01959 whole entry): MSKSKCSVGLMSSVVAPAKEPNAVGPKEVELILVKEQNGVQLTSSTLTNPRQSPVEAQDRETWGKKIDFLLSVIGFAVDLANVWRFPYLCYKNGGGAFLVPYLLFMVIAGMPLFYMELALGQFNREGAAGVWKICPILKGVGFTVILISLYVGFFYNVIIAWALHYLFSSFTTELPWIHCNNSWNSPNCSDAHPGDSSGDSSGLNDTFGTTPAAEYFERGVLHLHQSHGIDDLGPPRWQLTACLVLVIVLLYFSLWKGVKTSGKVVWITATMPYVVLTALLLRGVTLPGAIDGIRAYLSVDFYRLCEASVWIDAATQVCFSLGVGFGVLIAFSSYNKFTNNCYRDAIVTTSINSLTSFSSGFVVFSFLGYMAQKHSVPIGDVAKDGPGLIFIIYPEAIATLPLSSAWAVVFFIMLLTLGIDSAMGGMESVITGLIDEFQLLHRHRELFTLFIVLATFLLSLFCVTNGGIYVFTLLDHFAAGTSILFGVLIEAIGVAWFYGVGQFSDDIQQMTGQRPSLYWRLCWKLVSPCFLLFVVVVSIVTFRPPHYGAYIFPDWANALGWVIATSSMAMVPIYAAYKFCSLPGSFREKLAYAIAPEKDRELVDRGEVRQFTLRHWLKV
Description: Inhibition of [3H]dopamine uptake at human DAT expressed in HEK293 cells

cells = details: Mus musculus, C57BL/6J, Splenocyte, 72 h
Description: Cytotoxicity against C57BL/6J mouse splenocytes after 72 hrs by alamar blue assay

Plasmodium falciparum [6] = experiment: Chemosensitizing activity after 72 hrs against chloroquine-resistant Plasmodium falciparum Dd2 infected human erythrocytes as IC50 ratio quinine +/- 500 nM by SYBR green assay; type: functional
Plasmodium falciparum [7] = experiment: Antimalarial activity after 72 hrs against chloroquine-resistant transporter 106/1'76T mutant Plasmodium falciparum infected human erythrocytes by SYBR green assay; type: functional, organism-based
Plasmodium falciparum [8] = experiment: Chemosensitizing activity after 72 hrs against chloroquine-resistant Plasmodium falciparum Dd2 infected human erythrocytes as IC50 ratio desethylchloroquine +/- 500 nM by SYBR green assay; type: functional
Plasmodium falciparum [9] = experiment: Antimalarial activity after 72 hrs against chloroquine-resistant transporter 106/1'76N mutant Plasmodium falciparum infected human erythrocytes by SYBR green assay; type: functional, organism-based
Plasmodium falciparum [10] = experiment: Antimalarial activity after 72 hrs against chloroquine-resistant transporter 106/1'76I mutant Plasmodium falciparum infected in human erythrocytes by SYBR green assay; type: functional, organism-based
Histamine H1 receptor = Histamine H1 receptor (Homo sapiens, UniProt P35367); experiment: biochemical; type: cell-based, CHO
Chain of Histamine H1 receptor (P35367 whole entry): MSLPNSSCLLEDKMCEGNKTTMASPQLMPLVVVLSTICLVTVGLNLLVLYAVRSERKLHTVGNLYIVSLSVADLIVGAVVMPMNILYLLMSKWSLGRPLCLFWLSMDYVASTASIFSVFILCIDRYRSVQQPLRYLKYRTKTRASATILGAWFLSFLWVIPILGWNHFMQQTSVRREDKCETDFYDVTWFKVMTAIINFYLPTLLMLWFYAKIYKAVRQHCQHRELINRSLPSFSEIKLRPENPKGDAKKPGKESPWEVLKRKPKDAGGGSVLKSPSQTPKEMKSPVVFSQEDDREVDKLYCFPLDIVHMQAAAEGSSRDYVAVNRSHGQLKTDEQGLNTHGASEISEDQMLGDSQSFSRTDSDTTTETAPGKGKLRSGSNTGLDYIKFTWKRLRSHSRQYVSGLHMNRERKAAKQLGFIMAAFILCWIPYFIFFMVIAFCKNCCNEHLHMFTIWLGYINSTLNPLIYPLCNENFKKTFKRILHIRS
Description: Displacement of [3H]pyrilamine from human histamine receptor subtype 1 expressed in CHO cells

Plasmodium falciparum [11] = experiment: Chemosensitizing activity after 72 hrs against chloroquine-sensitive Plasmodium falciparum D6 infected human erythrocytes as IC50 ratio desethylchloroquine +/- 500 nM drug by SYBR green assay; type: functional
Plasmodium falciparum [12] = experiment: Chemosensitizing activity after 72 hrs against chloroquine-sensitive Plasmodium falciparum D6 infected human erythrocytes as IC50 ratio quinine +/- 500 nM by SYBR green assay; type: functional

Question: Which IC50 (Plasmodium falciparum [1]) does the source give for `CCN(CC)CCn1c2ccccc2c(=O)c2ccccc21` here?
Answer: 11.8 µM

Question: What about the IC50 (Plasmodium falciparum [2]) of the same compound?
Answer: 7.5 µM

Question: And the IC50 [3]?
Answer: > 10 µM

Question: What about the IC50 [4] of the same compound?
Answer: > 10 µM

Question: And the IC50 [5]?
Answer: > 10 µM

Question: And the IC50 (cells)?
Answer: 28.5 µM

Question: What does the source list for `O=c1c2ccccc2n(CCCCCCCl)c2ccccc12`?
Answer: IC50 (Plasmodium falciparum [1]): 1.3 µM; IC50 (Plasmodium falciparum [2]): 2.6 µM; IC50 (cells): 59.5 µM

Question: Which IC50 (Plasmodium falciparum [1]) does the source give for `CCN(CC)CCCn1c2ccccc2c(=O)c2ccccc21` here?
Answer: 8.1 µM

Question: And the IC50 (Plasmodium falciparum [2])?
Answer: 1.6 µM

Question: And the IC50 [3]?
Answer: > 10 µM

Question: What about the IC50 [4] of the same compound?
Answer: > 10 µM

Question: What about the IC50 [5] of the same compound?
Answer: > 10 µM

Question: What about the IC50 (cells) of the same compound?
Answer: 22.5 µM

Question: What does the source list for `CCN(CC)CCCCCn1c2ccccc2c(=O)c2ccccc21`?
Answer: IC50 (Plasmodium falciparum [1]): 3.7 µM; IC50 (Plasmodium falciparum [2]): 5.8 µM; IC50 [3]: 7.8 µM; IC50 [4]: 9.1 µM; IC50 [5]: > 10 µM; IC50 (cells): 30.5 µM

Question: With `CCN(CC)CCCCCCn1c2ccccc2c(=O)c2ccccc21` as the compound, how does the IC50 (Plasmodium falciparum [1]) read?
Answer: 3.2 µM

Question: What about the “Ratio IC50” value (Plasmodium falciparum [6]) of the same compound?
Answer: 1

Question: What about the IC50 (Plasmodium falciparum [7]) of the same compound?
Answer: 4.5 µM

Question: And the IC50 (Plasmodium falciparum [2])?
Answer: 2.7 µM

Question: And the “Ratio IC50” value (Plasmodium falciparum [8])?
Answer: 1.01

Question: What about the IC50 (Plasmodium falciparum [9]) of the same compound?
Answer: 0.596 µM

Question: And the IC50 [3]?
Answer: 3.5 µM

Question: What about the IC50 (Plasmodium falciparum [10]) of the same compound?
Answer: 3.66 µM

Question: What about the IC50 [4] of the same compound?
Answer: > 10 µM

Question: And the IC50 [5]?
Answer: > 10 µM

Question: And the IC50 (Histamine H1 receptor)?
Answer: 3.6 µM

Question: And the IC50 (cells)?
Answer: 26.4 µM

Question: And the “Ratio IC50” value (Plasmodium falciparum [11])?
Answer: 0.17

Question: And the “Ratio IC50” value (Plasmodium falciparum [12])?
Answer: 0.3

Question: What does the source list for `CCN(CC)CCCCCCCCn1c2ccccc2c(=O)c2ccccc21`?
Answer: IC50 (Plasmodium falciparum [1]): 2.6 µM; IC50 (Plasmodium falciparum [2]): 1.8 µM; IC50 (cells): 17.6 µM

Question: Which results are given for `CCN(CC)CCCCn1c2ccccc2c(=O)c2ccccc21`?
Answer: IC50 (Plasmodium falciparum [1]): 7.6 µM; IC50 (Plasmodium falciparum [2]): 10.2 µM; IC50 [3]: > 10 µM; IC50 [4]: > 10 µM; IC50 [5]: > 10 µM; IC50 (cells): 34.5 µM

Question: Which IC50 (Plasmodium falciparum [1]) does the source give for `CN(C)CCC(c1ccc(Cl)cc1)c1ccccn1` (centres undefined) [CHLORPHENIRAMINE] here?
Answer: 61.2 µM

Question: And the IC50 (Plasmodium falciparum [2])?
Answer: 3.9 µM

Question: What about the IC50 (cells) of the same compound?
Answer: 33.4 µM

Question: With `CCNCCCC(C)Nc1ccnc2cc(Cl)ccc12` (centres undefined) [DESETHYLCHLOROQUINE] as the compound, how does the IC50 (Plasmodium falciparum [1]) read?
Answer: 0.0182 µM

Question: And the IC50 (Plasmodium falciparum [2])?
Answer: 0.372 µM
